Assay [1] in a line: Inhibition of Influenza A virus (A/California/07/2009(H1N1)) Neuraminidase N1 at pH 7.4 by DIANA assay.
Assay [2] is described as follows: Selectivity index, ratio of Ki for inhibition of Influenza A virus (A/California/07/2009(H1N1)) Neuraminidase N1 by DIANA assay to Ki for inhibition of influenza A virus chicken/Nakorn- Patom/Thailand/CU-K2-2004 Neuraminidase N1 by DIANA assay.
Assay [3] can be described thus: Inhibition of Influenza A virus (A/California/07/2009(H1N1)) Neuraminidase N1 at pH 6.15 using 4-MUNANA substrate incubated for 20 mins by fluorometric assay.

The structures appear in SMILES notation.

In ChEMBL document CHEMBL4340571, “Investigation of flexibility of neuraminidase 150-loop using tamiflu derivatives in influenza A viruses H1N1 and H5N1” (Bioorg Med Chem, 2019) one finds Ki and Ratio Ki data, which are given here for 23 molecules.

With `CCC(CC)O[C@@H]1C=C(C(=O)O)C[C@H](n2cc(-c3ccsc3)nn2)[C@H]1NC(C)=O`, the affinity in assay [1], expressed as Ki, was 16 µM. Further, the Ratio Ki in assay [2] lay within 2 to 4.

For the molecule `CCC(CC)O[C@@H]1C=C(C(=O)O)C[C@H](NCc2cn(CCN3CCS(=O)(=O)CC3)nn2)[C@H]1NC(C)=O`, in assay [1], the Ki – broadly, a dissociation constant, usually derived from enzyme kinetics or from competition with a known ligand – is 12 µM.

Consider `CCC(CC)O[C@@H]1C=C(C(=O)O)C[C@H](n2cc(CNc3ccccc3)nn2)[C@H]1NC(C)=O`, for which the Ki in assay [1] turned out to be 19 µM. For the same molecule, in assay [2], the Ratio Ki was in the range of 2 to 4.

Regarding `CCC(CC)O[C@@H]1C=C(C(=O)O)C[C@H](NCc2cn(CC(=O)NC)nn2)[C@H]1NC(C)=O`, the Ki came out at 1.2 µM in assay [1] and 0.87 µM in assay [3].

As for `CCC(CC)O[C@@H]1C=C(C(=O)O)C[C@H](n2cc(C[C@H](N)C(=O)O)nn2)[C@H]1NC(C)=O`, affinity in assay [1] was put at a Ki of 64 µM. In addition, the Ratio Ki in assay [2] fell in the range of 2 to 4.

Regarding `CCC(CC)O[C@@H]1C=C(C(=O)O)C[C@H](n2cc(CNc3cc(F)ccc3OC)nn2)[C@H]1NC(C)=O`, the Ki in assay [1] was determined as 22 µM. In assay [2], the Ratio Ki is 2 to 4.

Consider `CCC(CC)O[C@@H]1C=C(C(=O)O)C[C@H](n2cc(CNc3ccccc3C(N)=O)nn2)[C@H]1NC(C)=O`, for which the affinity in assay [1], expressed as Ki, was 13 µM. Moreover, the Ratio Ki in assay [2] fell in the range of 2 to 4.

Molecule `CCC(CC)O[C@@H]1C=C(C(=O)O)C[C@H](NCc2cn(CC(=O)O)nn2)[C@H]1NC(C)=O` had a Ki in assay [1] of 2.8 µM.

Turning to `CCOC(=O)C1=C[C@@H](OC(CC)CC)[C@H](NC(C)=O)[C@@H](N)C1` [OSELTAMIVIR PHOSPHATE], the affinity in assay [1] corresponds to a Ki of 2 µM.

Consider `CCC(CC)O[C@@H]1C=C(C(=O)O)C[C@H](n2cc(COCC(C)(CO)CO)nn2)[C@H]1NC(C)=O`, for which the inhibitory constant (Ki) in assay [1] amounted to 180 µM. Further, the Ratio Ki in assay [2] was 2 to 4.

Take `CCC(CC)O[C@@H]1C=C(C(=O)O)C[C@H](NCc2cn(CC(=O)N(C)C)nn2)[C@H]1NC(C)=O`: in assay [1], the affinity, expressed as Ki, was 5.9 µM.

Regarding `CCC(CC)O[C@@H]1C=C(C(=O)O)C[C@H](n2cc(CNc3ccc(C(N)=O)c(C(F)(F)F)c3)nn2)[C@H]1NC(C)=O`, the affinity in assay [1] corresponds to a Ki of 14 µM. In addition, the Ratio Ki in assay [2] lay within 2 to 4.

`CCC(CC)O[C@@H]1C=C(C(=O)O)C[C@H](n2cc(CNc3ccc(NC(C)=O)cc3)nn2)[C@H]1NC(C)=O` had a Ki in assay [1] of 9.1 µM. In addition, the Ratio Ki in assay [2] fell in the range of 2 to 4.

In assay [1], `CCC(CC)O[C@@H]1C=C(C(=O)O)C[C@H](NCc2cn(CC(C)(CO)CO)nn2)[C@H]1NC(C)=O` yielded a Ki of 0.89 µM.

As for `CCC(CC)O[C@@H]1C=C(C(=O)O)C[C@H](n2cc(CO)nn2)[C@H]1NC(C)=O`, the Ki was 12 µM in assay [1] and 0.47 µM in assay [3]. Also, the Ratio Ki in assay [2] lay in the range of 2 to 4.

In the case of `CCC(CC)O[C@@H]1C=C(C(=O)O)C[C@H](N)[C@H]1NC(C)=O` [OSELTAMIVIR CARBOXYLATE], the values for the Ki in assay [1] and in assay [3] were 0.031 µM and 0.024 µM, respectively.

Molecule `CCC(CC)O[C@H]1CC(C(=O)O)=C[C@@H](n2cc(CN3CCS(=O)(=O)CC3)nn2)[C@@H]1NC(C)=O` had an inhibition constant (Ki) in assay [1] of 340 µM. Further, the Ratio Ki in assay [2] lay in the range of 2 to 4.

As for `CCC(CC)O[C@@H]1C=C(C(=O)O)C[C@H](N=[N+]=[N-])[C@H]1NC(C)=O`, in assay [3], the inhibition constant Ki was 0.91 µM.

In assay [1], `CCC(CC)O[C@@H]1C=C(C(=O)O)C[C@H](n2cc(CN(C)c3ccc(OC)cc3)nn2)[C@H]1NC(C)=O` showed a Ki of 19 µM. Also, in assay [2], the Ratio Ki lay in the range of 2 to 4.

With `CCC(CC)O[C@@H]1C=C(C(=O)O)C[C@H](n2cc(-c3cccs3)nn2)[C@H]1NC(C)=O`, in assay [1], affinity was put at a Ki of 20 µM. Moreover, the Ratio Ki in assay [2] was 2 to 4.

In assay [1], `CCC(CC)O[C@@H]1C=C(C(=O)O)C[C@H](n2cc(C[C@@]3(C(=O)O)CCCN3)nn2)[C@H]1NC(C)=O` registered a Ki of 98 µM. Moreover, the Ratio Ki in assay [2] fell in the range of 2 to 4.

On to `CCC(CC)O[C@@H]1C=C(C(=O)O)C[C@H](NCc2cn(CCO)nn2)[C@H]1NC(C)=O`, for which the inhibition constant Ki in assay [1] was determined as 0.75 µM; in assay [3] it was 0.65 µM.

Turning to `CCC(CC)O[C@@H]1C=C(C(=O)O)C[C@H](n2cc(CNc3cccc(C(F)(F)F)c3)nn2)[C@H]1NC(C)=O`, the Ki worked out at 4.2 µM in assay [1] and 0.47 µM in assay [3]. For the same molecule, the Ratio Ki in assay [2] lay in the range of 2 to 4.
